Where a name gives a salt, the structure may show the parent alone.

Data on 17 molecules can be found in patent publication US12459951B2, “Compounds that interact with RAS superfamily proteins for treatment of cancers, inflammatory diseases, rasopathies, and fibrotic disease” (SHY Therapeutics, LLC, priority 2022, dated 2025).

In one assay the test system is Erk1/2 phosphorylation. The assay is described as follows: Erk1/2 Phosphorylation Assay (western blot), Panc-1. The note with it: at 10 μM, * = activation. Format: cell-based, human. The method, then:
Protocol for Western Erk1/2 Cell-Based Phosphorylation Assay
This assay is referred to as the “Erk1/2 Phosphorylation Assay” throughout this application.
Cell lines: Human tumor-derived pancreatic cancer cell line Panc-1 (expressing KRas G12D mutant) was purchased from American Type Culture Collection and grown in complete DMEM-High Glucose medium, supplemented with penicillin (100 U/mL), streptomycin (100 μg/mL), and 10% heat-inactivated FBS at 37° C. in a humidified incubator with 5% CO2.
Method 1: Cells were plated at 350000 cells/well density in a 12-well plate, allowed 3 hours to adhere to the plate, then starved in the appropriate medium in the presence of 0.5% FBS overnight. The small molecules to be tested were added to the cells in the final concentration of 10 μM in the presence of 0.3% DMSO for 6 hours incubation at 37° C. For IC50 value determination, serial dilutions of compounds were added to cells under the same conditions. Next, cells were stimulated with 1.5 ng/ml EGF for 15 minutes then cells were lysed with lysis buffer containing 1% Triton X-100, EDTA, and Halt™ Protease & Phosphatase Inhibitor Cocktail (Thermo Scientific). Protein concentration was assessed by BCA protein assay (Thermo Scientific). Phosphorylation level of Erk1/2 was determined by western blot.
Method 2: Cells were plated at 350000 cells/well density in a 12-well plate in 10% FBS. The next day small molecules to be tested were added to the cells in the final concentration of 10 μM in the presence of 0.3% DMSO for 6 hours incubation at 37° C. For IC50 value determination, serial dilutions of compounds were added to cells under the same conditions. Next, cells were lysed with lysis buffer containing 1% Triton X-100, EDTA, and Halt™ Protease & Phosphatase Inhibitor Cocktail (Thermo Scientific). Protein concentration was assessed by BCA protein assay (Thermo Scientific). Phosphorylation level of Erk1/2 was determined by western blot.
Western blot protocol: Equal amounts of protein (15-50 μg) were separated by SDS-PAGE and transferred to nitrocellulose membranes (Invitrogen by Thermo Fisher Scientific). The membrane was stained with Ponceau S Stain (Boston BioProducts) to verify uniform protein loading. Membranes were blocked with 10% milk and phosphorylation levels of Erk1/2 were assessed by incubating overnight at 4° C. with anti-phospho-p44/42 (Thr202/Tyr204) antibody (Cell Signaling) followed by HRP-conjugated secondary antibody (Jackson Immunoresearch, West Grove, PA). Bands were incubated in Amersham ECL Prime Western Blotting Detection Reagent (GE Healthcare) and visualized using the ChemiDoc MP imaging system (Bio-Rad).
On the technique in general: In western blotting, separated proteins are transferred to a membrane and probed.

For another assay, the system named is TNF-alpha. The assay can be described thus: TNF-alpha Quantification Assay (ELISA), LPS-stimulated RAW 264.7. Format: cell-based. To be noted: Mus musculus, RAW264.7; at 10 μM; read-out: TNFα: % inh.
Another assay relates to IL6. The assay can be described thus: IL-6 Quantification Assay (ELISA), LPS-stimulated RAW 264.7. The assay is classed as cell-based. Also on record: inhibition: dose or concentration left out as unconfirmed. The note with it: Mus musculus, RAW264.7; read-out: IL-6: % inh.

On to `COCCO[C@H]1C[C@H](Nc2nc(-c3nccn3C)nn3cc(-c4ccn(C)n4)c(C)c23)C1` [Compound 130, N-((1r,3r)-3-(2-Methoxyethoxy)cyclobutyl)-5-methyl-2-(1-methyl-1H-imidazol-2-yl)-6-(1-methyl-1H-pyrazol-3-yl)pyrrolo[2,1-f][1,2,4]triazin-4-amine], for which the “% inh of Erk1/2 phosphorylation in Panc-1” value (“% inh” below) in the assay on Erk1/2 phosphorylation was “B* (26-49% activation)”. The inhibition at 10 µM in the assay on TNF-alpha fell in the range of 1 to 24%. In addition, the inhibition in the assay with IL6 turned out to be 0%.
In the same order, the values of `Cc1c(-c2ccn(C(C)C)n2)cn2nc(-c3nccn3C)nc(Nc3cc(OCCO)ncn3)c12` [Compound 97, 2-((6-((6-(1-Isopropyl-1H-pyrazol-3-yl)-5-methyl-2-(1-methyl-1H-imidazol-2-yl)pyrrolo[2,1-f][1,2,4]triazin-4-yl)amino)pyrimidin-4-yl)oxy) ethan-1-ol] are “D* (85-100% activation)”, 0% and 1 to 24%.
In the same order, the values of `COc1ccnc(Nc2nc(-c3nccn3C)nn3cc(-c4ccn(C)n4)c(C)c23)n1.Cl` [Compound 114, N-(4-Methoxypyrimidin-2-yl)-5-methyl-2-(1-methyl-1H-imidazol-2-yl)-6-(1-methyl-1H-pyrazol-3-yl)pyrrolo[2,1-f][1,2,4]triazin-4-amine hydrochloride salt] are “B* (26-49% activation)”, 50 to 74% and 75 to 100%.
For `COc1cc(Nc2nc(-c3nccn3C)nn3cc(-c4ccn(C(F)F)n4)c(C)c23)ncn1` [Compound 98, 6-(1-(Difluoromethyl)-1H-pyrazol-3-yl)-N-(6-methoxypyrimidin-4-yl)-5-methyl-2-(1-methyl-1H-imidazol-2-yl)pyrrolo[2,1-f][1,2,4]triazin-4-amine], in that order: “D* (85-100% activation)”, 0% and 1 to 24%.
For `COc1ccnc(Nc2nc(-c3nccn3C)nn3cc(-c4cccnc4)c(-c4cccnc4)c23)c1` [Compound 169, N-(4-methoxypyridin-2-yl)-2-(1-methyl-1H-imidazol-2-yl)-5,6-di(pyridin-3-yl)pyrrolo[2,1-f][1,2,4]triazin-4-amine], the “% inh” value in the assay with Erk1/2 phosphorylation is given as “B* (26-49% activation)”. The inhibition at 10 µM with TNF-alpha turned out to be 0%. Moreover, the inhibition with IL6 is 1 to 24%.
In the case of `COc1cc(Nc2nc(-c3nccn3C)nn3cc(-c4ccccn4)c(C)c23)ncn1` [Compound 94, N-(6-Methoxypyrimidin-4-yl)-5-methyl-2-(1-methyl-1H-imidazol-2-yl)-6-(pyridin-2-yl)pyrrolo[2,1-f][1,2,4]triazin-4-amine], the “% inh” value in the assay with Erk1/2 phosphorylation was “C* (46-84% activation)”. Besides, the inhibition at 10 µM with TNF-alpha is 25 to 49%. The inhibition in the assay with IL6 lay within 50 to 74%.
Turning to `CO[C@H]1CC[C@@H](Nc2nc(-c3nccn3C)nn3cc(-c4ccn(C)n4)c(C)c23)C1` (racemic) [Compound 133, rac N-((1R,3S)-3-Methoxycyclopentyl)-5-methyl-2-(1-methyl-1H-imidazol-2-yl)-6-(1-methyl-1H-pyrazol-3-yl)pyrrolo[2,1-f][1,2,4]triazin-4-amine], the “% inh” value in the assay on Erk1/2 phosphorylation is reported as “A (1-25% inhibition)”. In addition, in the assay on TNF-alpha, the inhibition at 10 µM was in the range of 1 to 24%. For the same molecule, the inhibition in the assay on IL6 turned out to be 0%.
For `CO[C@H]1C[C@H](Nc2nc(-c3nccn3C)nn3cc(-c4ccn(C)n4)c(C)c23)C1` [Compound 103, N-((1r,3r)-3-Methoxycyclobutyl)-5-methyl-2-(1-methyl-1H-imidazol-2-yl)-6-(1-methyl-1H-pyrazol-3-yl)pyrrolo[2,1-f][1,2,4]triazin-4-amine hydrochloride salt], in that order: “A* (1-25% activation)”, 0% and 0%.
Consider `Cc1c(-c2ccn(C3CC3)n2)cn2nc(-c3nccn3C)nc(Nc3cc(OC(F)F)ccn3)c12` [Compound 139, 6-(1-Cyclopropyl-1H-pyrazol-3-yl)-N-(4-(difluoromethoxy)pyridin-2-yl)-5-methyl-2-(1-methyl-1H-imidazol-2-yl)pyrrolo[2,1-f][1,2,4]triazin-4-amine], for which the “% inh” value in the assay on Erk1/2 phosphorylation is “D* (85-100% activation)”. The inhibition at 10 µM with TNF-alpha lay in the range of 1 to 24%. For the same molecule, in the assay on IL6, the inhibition fell in the range of 50 to 74%.
Turning to `COc1cc(Nc2nc(-c3nccn3C)nn3cc(-c4cccnc4)c(-c4ccccn4)c23)ncn1` [Compound 167, N-(6-Methoxypyrimidin-4-yl)-2-(1-methyl-1H-imidazol-2-yl)-5-(pyridin-2-yl)-6-(pyridin-3-yl)pyrrolo[2,1-f][1,2,4]triazin-4-amine], the “% inh” value in the assay with Erk1/2 phosphorylation was “A (1-25% inhibition)”. In addition, in the assay with TNF-alpha, the inhibition at 10 µM turned out to be 0%. Besides, the inhibition in the assay on IL6 was 0%.
Consider `Cc1c(-c2ccn(C)n2)cn2nc(-c3nccn3C)nc(Nc3nccn3C)c12` [Compound 106, 5-Methyl-N,2-bis(1-methyl-1H-imidazol-2-yl)-6-(1-methyl-1H-pyrazol-3-yl)pyrrolo[2,1-f][1,2,4]triazin-4-amine], for which the “% inh” value in the assay on Erk1/2 phosphorylation is given as 0 (0% inhibition). Also, the inhibition at 10 µM with TNF-alpha was 0%. The inhibition in the assay with IL6 is 50 to 74%.
In the same order, the values of `CO[C@H]1C[C@@H](Nc2nc(-c3nccn3C)nn3cc(-c4ccn(C)n4)c(C)c23)C1` [Compound 131, N-((1s,3s)-3-Methoxycyclobutyl)-5-methyl-2-(1-methyl-1H-imidazol-2-yl)-6-(1-methyl-1H-pyrazol-3-yl)pyrrolo[2,1-f][1,2,4]triazin-4-amine] are “A* (1-25% activation)”, 1 to 24% and 0%.
For `CO[C@@H]1CC[C@@H](Nc2nc(-c3nccn3C)nn3cc(-c4cccnc4)c(C)c23)C1` (racemic) [Compound 154, rac N-((1R,3R)-3-methoxy-cyclopentyl)-5-methyl-2-(1-methyl-1H-imidazol-2-yl)-6-(pyridin-3-yl)pyrrolo[2,1-f][1,2,4]triazin-4-amine], in that order: “C* (46-84% activation)”, 0% and 25 to 49%.
In the same order, the values of `COc1cnc(Nc2nc(-c3nccn3C)nn3cc(-c4ccn(C)n4)c(C)c23)nc1.Cl` [Compound 117, N-(5-Methoxypyrimidin-2-yl)-5-methyl-2-(1-methyl-1H-imidazol-2-yl)-6-(1-methyl-1H-pyrazol-3-yl)pyrrolo[2,1-f][1,2,4]triazin-4-amine hydrochloride salt] are “B (26-49% inhibition)”, 1 to 24% and 1 to 24%.
Regarding `Cc1c(-c2ccn(C)n2)cn2nc(-c3nccn3C)nc(Nc3nccc(OCCN(C)C)n3)c12` [Compound 105, N-(4-(2-(Dimethylamino)ethoxy)pyrimidin-2-yl)-5-methyl-2-(1-methyl-1H-imidazol-2-yl)-6-(1-methyl-1H-pyrazol-3-yl)pyrrolo[2,1-f][1,2,4]triazin-4-amine], the “% inh” value with Erk1/2 phosphorylation is reported as “A (1-25% inhibition)”. In addition, the inhibition at 10 µM in the assay with TNF-alpha stood at 0%. Besides, the inhibition in the assay on IL6 fell in the range of 75 to 100%.
In the same order, the values of `COCCOc1cc(Nc2nc(-c3nccn3C)nn3cc(-c4ccn(C(C)C)n4)c(C)c23)ncn1` [Compound 122, 6-(1-Isopropyl-1H-pyrazol-3-yl)-N-(6-(2-methoxyethoxy)pyrimidin-4-yl)-5-methyl-2-(1-methyl-1H-imidazol-2-yl)pyrrolo[2,1-f][1,2,4]triazin-4-amine] are “A* (1-25% activation)”, 1 to 24% and 50 to 74%.
For `Cc1c(-c2ccn(C3CC3)n2)cn2nc(-c3nccn3C)nc(Nc3cc(OCCO)ccn3)c12` [Compound 146, 2-((2-((6-(1-Cyclopropyl-1H-pyrazol-3-yl)-5-methyl-2-(1-methyl-1H-imidazol-2-yl)pyrrolo[2,1-f][1,2,4]triazin-4-yl)amino)pyridin-4-yl)oxy)ethan-1-ol], in that order: “D* (85-100% activation)”, 1 to 24% and 0%.
